Source: patent US20140051679A1, “KINASE INHIBITORS AND METHOD OF TREATING CANCER WITH SAME” (UNIVERISTY HEALTH NETWORKS, priority 2011, published 2014)

How the values were obtained:
human PLK4 = molecular target: T1, human PLK4 (Homo sapiens, UniProt O00444); experiment: PLK4 inhibition assay (indirect ELISA); format: biochemical; settings: GST-PLK4 4 nM, 15 μM ATP; read-out: IC50 Ranges PLK4
T1 construct: amino terminal GST fusion of residues 1-391 of human PLK4; made in house; host or cells: E. coli
T1 sequence (O00444 1-391): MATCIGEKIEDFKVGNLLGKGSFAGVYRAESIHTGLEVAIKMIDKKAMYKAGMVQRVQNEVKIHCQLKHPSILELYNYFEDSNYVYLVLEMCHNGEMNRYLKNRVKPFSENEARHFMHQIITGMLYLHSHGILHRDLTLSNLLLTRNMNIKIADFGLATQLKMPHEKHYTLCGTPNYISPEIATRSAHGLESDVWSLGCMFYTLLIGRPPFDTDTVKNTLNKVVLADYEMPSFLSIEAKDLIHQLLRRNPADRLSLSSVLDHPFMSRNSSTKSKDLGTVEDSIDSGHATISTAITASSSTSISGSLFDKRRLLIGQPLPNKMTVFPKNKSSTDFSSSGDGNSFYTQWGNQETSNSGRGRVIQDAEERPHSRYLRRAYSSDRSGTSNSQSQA
Method: Active PLK4 was purified from an E. coli expression system as an amino terminal GST fusion of residues 1-391 of human PLK4. The protein was purified from clarified cell extracts after induction at 15° C. overnight using glutathione sepharose, gel permeation chromatography, and ion exchange (Resource Q). The resulting protein was dephosphorylated with lambda phosphatase (NEB cat#P0753), and resolved from the phosphatase using gluthione sepharose. The dephosphorylated GST-PLK4 was stored in aliquots at −80° C. until use.
PLK4 activity was measured using an indirect ELISA detection system. GST-PLK4 (4 nM) was incubated in the presence of 15 μM ATP (Sigma cat#A7699), 50 mM HEPES-Na^2+ pH 7.5, 10 mM MgCl2, 0.01% Brij 35 (Sigma cat#03-3170), in a 96 well microtitre plate pre-coated with MBP (Millipore cat#30-011). The reaction was allowed to proceed for 30 minutes, followed by 5 washes of the plate with Wash Buffer (phosphate buffered saline supplemented with 0.2% Tween 20), and incubation for 30 minutes with a 1:3000 dilution of primary antibody (Cell Signaling cat#9381). The plate was washed 5 times with Wash Buffer, incubated for 30 minutes in the presence of secondary antibody coupled to horse radish peroxidase (BioRad cat#1721019, 1:3000 concentration), washed an additional 5 times with Wash Buffer, and incubated in the presence of TMB substrate (Sigma cat#T0440). The colourimetric reaction was allowed to continue for 5 minutes, followed by addition of stop solution (0.5 N sulphuric acid), and quantified by detection at 450 nm with either a monochromatic or filter based plate reader (Molecular Devices M5 or Beckman DTX880, respectively).
Compound inhibition was determined at either a fixed concentration (10 μM) or at a variable inhibitor concentration (typically 0.5 μM to 0.001 μM in a 10 point dose response titration). Compounds were pre-incubated in the presence of enzyme for 15 minutes prior to addition of ATP and the activity remaining quantified using the above described activity assay. The % Inhibition of a compound was determined using the following formula; % Inhibition=100×(1-(experimental value−background value)/(high activity control−background value)). The IC50 value was determined using a non-linear 4 point logistic curve fit (XLfit4, IDBS) with the formula; (A+(B/(1+((x/C)̂D)))), where A=background value, B=range, C=inflection point, D=curve fit parameter.

[1] = test system: MDA-MB-231 breast cancer cells; experiment: Cell growth inhibition, Sulforhodamine B assay, MDA-MB-231; format: cell-based; settings: Homo sapiens, 120 h, 5 days culture, SRB assay, read-out: Cell Line GI50 Range MDA-MB-231
Method: (§1) Breast cancer cells (MDA-MB-231, MDA-MB-468), colon cancer cells (HCT116, HT29) and ovarian cancer cells (PA-1, OVCAR-3) were seeded (1000 to 4000 in 80 μl per well depending on the cell growth rate) into 96 well plates 24 hours before compound overlay. Compounds were prepared as 10 mM stock solutions in 100% DMSO which were diluted with DMEM (Dulbecco's Modified Eagle's Medium) cell growth Medium (Invitrogen, Burlington, ON, Canada) containing 10% FBS (Fetal Bovine Serum) to concentrations ranging from 50 nM to 250 μM. Aliquots (20 μl) from each concentration were overlaid to 80 μl of the pre-seeded cells in the 96 well plates to make final concentrations of 10 nM to 50 μM. The cells were cultured for 5 days before the Sulforhodamine B assay (SRB) was performed to determine the compound's cell growth inhibition activity.
(§2) Sulforhodamine B (purchased from Sigma, Oakville, ON, Canada) is a water-soluble dye that binds to the basic amino acids of the cellular proteins. Thus, colorimetric measurement of the bound dye provides an estimate of the total protein mass that is related to the cell number. the cells are fixed in situ by gently aspirating off the culture media and adding 50 μl ice cold 10% Trichloroacetic Acid (TCA) per well and incubate at 4° C. for 30-60 min, The plates are washed with water five times and allowed to air dry for 5 min. Addition of 50 μl 0.4% (w/v) SRB solution in 1% (v/v) acetic acid to each well and incubatation for 30 min at RT completes the staining reaction. Following staining, plates are washed four times with 1% acetic acid to remove unbound dye and then allowed to air dry for 5 min. The stain is solubilized with 100 μl of 10 mM Tris pH 10.5 per well. Absorbance is read at 570 nm.
(§3) The percentage (%) of relative growth inhibition was calculated by comparing to DMSO treated only cells (100%). […] The GI50 was calculated using GraphPad PRISM software (GraphPad Software, Inc., San Diego, Calif., USA).

[2] = test system: MDA-MB-468 breast cancer cells; experiment: Cell growth inhibition, Sulforhodamine B assay, MDA-MB-468; format: cell-based; settings: Homo sapiens, 120 h, 5 days culture, SRB assay, read-out: Cell Line GI50 Range MDA-MB-468
human TTK = molecular target: T2, human TTK (Homo sapiens, UniProt P33981); experiment: TTK inhibition assay (indirect ELISA); format: biochemical; settings: GST-TTK 0.68 nM, 16 μM ATP; read-out: IC50 Ranges TTK
T2 construct: amino terminal GST fusion of full length human TTK; purchased Invitrogen
T2 sequence (P33981 1-857): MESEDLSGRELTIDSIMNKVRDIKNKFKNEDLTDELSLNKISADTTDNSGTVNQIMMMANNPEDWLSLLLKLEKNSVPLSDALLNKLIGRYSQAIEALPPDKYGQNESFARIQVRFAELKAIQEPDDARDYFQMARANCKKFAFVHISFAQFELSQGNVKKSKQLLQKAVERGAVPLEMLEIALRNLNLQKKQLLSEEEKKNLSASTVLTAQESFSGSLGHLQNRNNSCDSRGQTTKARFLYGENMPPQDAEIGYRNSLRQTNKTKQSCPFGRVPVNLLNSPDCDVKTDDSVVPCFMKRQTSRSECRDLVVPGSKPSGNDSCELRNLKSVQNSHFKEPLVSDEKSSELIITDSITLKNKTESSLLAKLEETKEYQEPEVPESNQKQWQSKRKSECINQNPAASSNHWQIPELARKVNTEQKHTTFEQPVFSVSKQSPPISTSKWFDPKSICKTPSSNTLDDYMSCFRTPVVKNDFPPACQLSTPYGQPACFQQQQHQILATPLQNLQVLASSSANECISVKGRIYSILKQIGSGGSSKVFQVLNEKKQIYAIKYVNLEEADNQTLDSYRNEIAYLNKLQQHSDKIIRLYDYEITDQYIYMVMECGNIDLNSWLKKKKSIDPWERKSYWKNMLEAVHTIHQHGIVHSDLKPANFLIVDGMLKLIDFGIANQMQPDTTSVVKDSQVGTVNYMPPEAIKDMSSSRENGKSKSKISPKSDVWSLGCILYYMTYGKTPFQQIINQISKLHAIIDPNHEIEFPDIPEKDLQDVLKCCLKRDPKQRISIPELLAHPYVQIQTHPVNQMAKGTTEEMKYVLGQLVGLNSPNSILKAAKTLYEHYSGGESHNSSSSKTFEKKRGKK

[3] = test system: HCT116 colon cancer cells; experiment: Cell growth inhibition, Sulforhodamine B assay, HCT116; format: cell-based; settings: Homo sapiens, HCT-116, 120 h, 5 days culture, SRB assay, read-out: Cell Line GI50 Range HCT116
Method: as §1, §2, §3

Aurora B = molecular target: T3, Aurora B (Homo sapiens, UniProt Q96GD4); experiment: Aurora B inhibition assay (Z-Lyte); format: biochemical; settings: 28 nM Aurora B, 128 μM ATP; read-out: IC50 Ranges Aurora B
T3 construct: purchased Invitrogen PV3970
Method: Aurora B inhibition was determined using the Z-Lyte assay kit from Invitrogen. The assay was performed using the recommended manufacturer's instructions with 128 μM ATP and 28 nM Aurora B (Invitrogen cat #PV3970). The % inhibition values were determined according to the manufacturer's directions and IC50 values were obtained using a non-linear 4 point logistic curve fit (XLfit4, IDBS)

T3 sequence (Q96GD4 whole entry): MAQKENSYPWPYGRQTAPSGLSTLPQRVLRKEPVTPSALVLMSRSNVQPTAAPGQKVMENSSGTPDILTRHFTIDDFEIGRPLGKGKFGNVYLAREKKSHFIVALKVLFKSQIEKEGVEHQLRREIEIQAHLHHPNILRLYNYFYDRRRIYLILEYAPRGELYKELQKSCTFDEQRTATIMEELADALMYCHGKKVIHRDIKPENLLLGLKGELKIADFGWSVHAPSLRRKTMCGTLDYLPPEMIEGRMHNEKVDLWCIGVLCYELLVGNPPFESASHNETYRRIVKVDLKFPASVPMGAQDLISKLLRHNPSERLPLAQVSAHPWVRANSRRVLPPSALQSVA

| SMILES | IC50 (human PLK4) [µM] | GI50 [1] [µM] | GI50 [2] [µM] | IC50 (human TTK) [µM] | GI50 [3] [µM] | IC50 (Aurora B) [µM] |
| --- | --- | --- | --- | --- | --- | --- |
| O=C(Nc1ccc2[nH]nc(-c3cccc(CN4CCOCC4)c3)c2c1)C(c1ccsc1)N1CCCC1 (stereo not drawn) [Example A1, N-(3-(3-(morpholinomethyl)phenyl)-1H-indazol-5-yl)-2-(pyrrolidin-1-yl)-2-(thiophen-3-yl)acetamide] | ≤ 5 | ≤ 5 | ≤ 5 | ≤ 5 | ≤ 5 | 5 to 50 |
| CN1CCN(c2ccc(-c3n[nH]c4ccc(NC(=O)C(c5ccsc5)N5CCCC5)cc34)cc2)CC1 (stereo not drawn) [Example A2, N-(3-(4-(4-methylpiperazin-1-yl)phenyl)-1H-indazol-5-yl)-2-(pyrrolidin-1-yl)-2-(thiophen-3-yl)acetamide] | ≤ 5 | ≤ 5 | ≤ 5 | ≤ 5 | ≤ 5 | ≤ 5 |
| O=C(Nc1ccc2[nH]nc(-c3ccc(CN4CCOCC4)cc3)c2c1)C(c1ccsc1)N1CCCC1 (stereo not drawn) [Example A3, N-(3-(4-(morpholinomethyl)phenyl)-1H-indazol-5-yl)-2-(pyrrolidin-1-yl)-2-(thiophen-3-yl)acetamide] | ≤ 5 | ≤ 5 | ≤ 5 | ≤ 5 | ≤ 5 | ≤ 5 |
| CN(C)CCOc1ccc(-c2n[nH]c3ccc(NC(=O)C(c4ccsc4)N4CCCC4)cc23)cc1 (stereo not drawn) [Example A5, N-(3-(4-(2-(dimethylamino)ethoxy)phenyl)-1H-indazol-5-yl)-2-(pyrrolidin-1-yl)-2-(thiophen-3-yl)acetamide] | ≤ 5 | ≤ 5 | ≤ 5 | ≤ 5 | ≤ 5 | 5 to 50 |
| O=C(Nc1ccc2[nH]nc(-c3ccc(CCN4CCOCC4)cc3)c2c1)C(c1ccsc1)N1CCCC1 (stereo not drawn) [Example A6, N-(3-(4-(2-morpholinoethyl)phenyl)-1H-indazol-5-yl)-2-(pyrrolidin-1-yl)-2-(thiophen-3-yl)acetamide] | ≤ 5 | ≤ 5 | ≤ 5 | ≤ 5 | ≤ 5 | ≤ 5 |
| COc1cc(-c2n[nH]c3ccc(NC(=O)C(c4ccsc4)N4CCCC4)cc23)ccc1OC1CCNCC1 (stereo not drawn) [Example A8, N-(3-(3-methoxy-4-(piperidin-4-yloxy)phenyl)-1H-indazol-5-yl)-2-(pyrrolidin-1-yl)-2-(thiophen-3-yl)acetamide] | ≤ 5 | ≤ 5 | ≤ 5 | ≤ 5 | ≤ 5 | ≤ 5 |
| COc1cc(-c2n[nH]c3ccc(NC(=O)C(c4ccsc4)N4CCCC4)cc23)ccc1N1CCN(C)CC1 (stereo not drawn) [Example A10, N-(3-(3-methoxy-4-(4-methylpiperazin-1-yl)phenyl)-1H-indazol-5-yl)-2-(pyrrolidin-1-yl)-2-(thiophen-3-yl)acetamide] | ≤ 5 | ≤ 5 | ≤ 5 | ≤ 5 | ≤ 5 | ≤ 5 |
| CN1CCN(c2ccc(-c3n[nH]c4ccc(NC(=O)C5CCCc6ccccc65)cc34)cc2)CC1 (stereo not drawn) [Example A11, N-(3-(4-(4-methylpiperazin-1-yl)phenyl)-1H-indazol-5-yl)-1,2,3,4-tetrahydronaphthalene-1-carboxamide] | ≤ 5 | ≤ 5 | ≤ 5 | ≤ 5 | ≤ 5 | ≤ 5 |
| COc1cc(-c2n[nH]c3ccc(C(=O)NC(c4ccccc4)C4CC4)cc23)ccc1OC1CCNCC1 (stereo not drawn) [Example A13, N-(cyclopropyl(phenyl)methyl)-3-(3-methoxy-4-(piperidin-4-yloxy)phenyl)-1H-indazole-5-carboxamide] | ≤ 5 | ≤ 5 | ≤ 5 | ≤ 5 | ≤ 5 | ≤ 5 |
| O=C(Nc1ccc2[nH]nc(-c3ccc4c(c3)OCO4)c2c1)C(c1ccsc1)N1CCCC1 (stereo not drawn) [Example A14, N-(3-(benzo[d][1,3]dioxol-5-yl)-1H-indazol-5-yl)-2-(pyrrolidin-1-yl)-2-(thiophen-3-yl)acetamide] | ≤ 5 | ≤ 5 | ≤ 5 | ≤ 5 | ≤ 5 |  |
| O=C(Nc1ccc2[nH]nc(-c3ccc4c(c3)OCCO4)c2c1)C(c1ccsc1)N1CCCC1 (stereo not drawn) [Example A15, N-(3-(2,3-dihydrobenzo[b][1,4]dioxin-6-yl)-1H-indazol-5-yl)-2-(pyrrolidin-1-yl)-2-(thiophen-3-yl)acetamide] | ≤ 5 | ≤ 5 | ≤ 5 | ≤ 5 | ≤ 5 |  |
| CN1CCc2cc(-c3n[nH]c4ccc(NC(=O)C(c5ccsc5)N5CCCC5)cc34)ccc21 (stereo not drawn) [Example A16, N-(3-(1-methylindolin-5-yl)-1H-indazol-5-yl)-2-(pyrrolidin-1-yl)-2-(thiophen-3-yl)acetamide] | ≤ 5 | ≤ 5 | ≤ 5 | ≤ 5 | ≤ 5 | ≤ 5 |
| O=C(Nc1ccc2[nH]nc(-c3ccc(CN4CCOCC4)cc3)c2c1)C1CCCc2ccccc21 (stereo not drawn) [Example A23, N-(3-(4-(morpholinomethyl)phenyl)-1H-indazol-5-yl)-1,2,3,4-tetrahydronaphthalene-1-carboxamide] | ≤ 5 | 5 to 20 | ≤ 5 | ≤ 5 | ≤ 5 |  |
